Patent EP1204866B1, “IMMUNOASSAY FOR PESTICIDES AND THEIR DEGRADATION PRODUCTS” (priority 1999, dated 2001)
“And” between values parts separate entries of the source, which are not always exact repeats. Equal values may be shown once. “Also recorded” adds a separate entry of the source.

Key:
[1] = test system: Balb/c×CF1 F1-hybrid mice; assay: immunisation of mice with hapten-polymer carrier complex and generation of monoclonal antibodies; assay type: in vivo; details: hapten bound to polymer carrier (ovalbumin)
Protocol: Live mice were primed for immunisation by an intraperitoneal injection of live BCG-vaccine one month before immunisation. The antigen (hapten-OA complex), once adsorbed onto Al(OH)3, was injected intraperitonally and test bleedings were collected. When antibody titre's exceeded 1:2000, mice were considered ready for fusion and the method described by Köhler and Milstein (1975) was employed with minor modifications. Monoclonal antibodies were selected on basis of titre, affinity and specificity. Selected clones were recloned until monoclonality and stored frozen at -80 °C.
Ten to twelve weeks old female Balb/c×CF1 F1-hybrid mice were used for immunisation. 5 One month before immunisation they were primed with 0.2 mL live BCG-vaccine intraperitonally. The antigen ([…] carrier/immunogen) was absorbed onto Al(OH)3 as an adjuvant. The total volume of vaccine per immunisation was 200 µL, containing […] of antigen and […] of adjuvant. The antigen was injected intraperitonally with 2-weeks intervals. Test bleedings were collected 10 days after immunisation and assayed in ELISA.
When antibody titre's exceeded 1:2000, mice were regarded ready for fusion. The procedure as described by Köhler and Milstein (1975) was employed with minor modifications. Monoclonal antibodies were selected on basis of titre, affinity and specificity. […]

[2] = test system: HYB 273-1; assay: competitive ELISA (immunoassay) for BAM with monoclonal antibody on hapten-coated microtitre plates; assay type: binding, mice
Protocol: The cross reactivity of an assay is a measure of its specificity for the analyte relative to similar or related compounds. It is useful in assessing its accuracy in crude samples with several potential haptens. Standard curves based on the 4-parameter-logistic equation (eq 1) were generated for a series of analytes (Table 3) in the range 100 to 0 mg/L (10-fold titrations). The IC50 value (C*) for each analyte was then compared with the IC50 of BAM (C) in equation 3. CR = ((C)/(C*)) × 100% [formula] • CR: cross-reactivity [%] • C: value of IC50 for BAM [µg/L] • C*: value of IC50 for cross-reacting analyte [µg/L]
Standards were used to generate comparative standard curves. The standards were added to hapten-coated plates followed by a known amount of antibody, such as HYB 273-1 in buffer. The plate was incubated for 1 hour, washed, and incubated with RαM^HRP, an enzyme label and incubated for 1 hour. After extensive washing, the enzyme substrate TMB-Plus was added. The colour development was stopped using acid and the absorbance read at 450 nm.
The standards were used to generate a semi-log graph based on the 4-parameter-logistic method (Rodbard, 1974: equation 1). Y = ((A-D))/([1+(((X)/(C)))^B]) + D [formula] • X: concentration of analyte (µg/L). • Y: absorbance at 450 nm (A450). • A: maximum absorbance (upper asymptote). • D: minimum absorbance (lower asymptote). • C: midpoint between A and D. Extrapolation to x-axis yields the value of IC50 (µg/L). • B: slope for the transition between A and D
The signals were normalised according to equation 2 %(B)/(B0) = (A-Axs)/(A0 -Axs) × 100 [formula] • B : concentration of bound antibody and • B0 : concentration of bound antibody in the absence of analyte.
On the plot, 100 % corresponds to the absorption of the zero control (A0: 0 µg/L) and 0 % corresponds to the absorption of an excess control (Axs: 100 µg/L). The normalised signals were plotted vs. BAM concentration and the four-parameter-logistic equation (eq 1) was fitted to the experimental points.
i) Passive adsorption: A MaxiSorp™ microtitre plate was filled by a stationary dispensor with 200 µL/well BAM-OA (16.7 ng/mL) in coating buffer. After coating over night at 4°C the plate was washed 4 times with de-ionised water and dried 30 min at 37°C. The plate was either used immediately or sealed with tape lid and stored at room temperature in the dark until use.
A PolySorp™microtitre plate was filled by a stationary dispensor with 200 µL/well BAM-OA-AQ (50 ng/mL) in 0.1 × PBS. After being exposed to uv-light (300-400 nm) at 34°C for 30 min, the plate was washed 4 times with de-ionised water and dried 30 min at 37°C. […]
Standards (in Milli-Q® water) and samples (150 µL) were added to the hapten-coated plate followed by the addition of 50 µL antibody (HYB 273-1) diluted in 10 × PBST (66.7 ng/mL). […] The colour development was stopped after 10 minutes by adding 50 µL/well 1 M H2SO4 and the absorbance was read at 450 nm. […] Y = ((A-D))/([1+(((X)/(C)))^B]) + D [formula] • X: concentration of analyte (µg/L). • Y: absorbance at 450 nm (A450). • A: maximum absorbance (upper asymptote). • D: minimum absorbance (lower asymptote). • C: midpoint between A and D. Extrapolation to x-axis yields the value of IC50 (µg/L). • B: slope for the transition between A and D
These calculations were executed automatically by the software package SOFTmax® PRO Version 2.2 upon reading the microtitre plates. […]

N-(5-carboxypentyl)-2,4-dichloro-3-amido aniline [EQ-0031]
immunoresponse on immunisation [1]: good responses were generated and several clones were produced; also recorded: generated good immunoresponse

NC(=O)c1ccc(Cl)cc1Cl [2,4-dichlorobenzamide]
cross-reactivity ([2]; IC50 of BAM divided by IC50 of analyte x 100, analytes assayed up to 100 mg/L, antibody HYB 273-1): 3.8%

NC(=O)c1c(Cl)cccc1Cl [BAM, 2,6-dichlorobenzamide]
IC50 ([2]; covalently immobilised (photocoupled) plates, PolySorp, BAM-OA-AQ, Figure 3A): 0.189 ng/mL and 0.19 ng/mL | IC50 ([2]; passively adsorbed plates, MaxiSorp, BAM-OA, Figure 3B): 0.144 ng/mL and 0.14 ng/mL | DL15 (detection limit, analyte concentration giving a 15 % decrease in maximum signal) ([2]; photo catalysed covalent immobilisation, Figure 3A): 0.02 µg/L | DL15 (detection limit, analyte concentration giving a 15 % decrease in maximum signal) ([2]; surfaces immobilised by passive adsorption, Figure 3B): 0.045 µg/L
